Test results as given in US8349619B2, “Method for detecting and analyzing protein interactions in-vivo” (Sygnis Bioscience GmbH & Co. KG, priority 2002, dated 2013).

Key:
PC12 20.4 cells = assay: Cell survival of PC12 20.4 cells after TSA addition (phase contrast images); assay type: cell-based, rat; settings: 3 μM TSA for 12 h
Protocol: As described in example 4, the PC12 cell line 20.4 expresses all components of the Cre-based reporter system in a completely functional manner. In order to test whether the cell line 20.4 can be utilized for application in the two-hybrid system (see FIG. 2), the known interaction partners described in example 3 were analyzed. Two days after cotransfection of the interaction partners G-ME2bHLH and V-ND, no GFP-positive cells were detectable (see FIG. 7, bottom left). After single transfections of G-ME2bHLH and V-ND, GFP-positive cells were likewise not detectable (see FIG. 7, central figures, left). […] Therefore, the same two-hybrid analysis was carried out in the following experiments, after transient addition of trichostatin A (3 μM, for 12 h, Sigma) (FIG. 8). […] After single transfections of G-ME2bHLH and V-ND, no GFP-positive cells were detectable (see FIG. 8, central figures, left). […] The TSA concentration with the best ratio of cell survival and nearly background-free detection of the interaction of G-ME2bHLH and V-ND, was […] for 12 h. […] Only after cotransfection of the interaction partners GBR2cc and V-GBR1cc, a multiplicity of GFP-positive cells were detected, after single transfection and cotransfection of the cc deletion mutants, GBR2ccDel and V-GBR1ccDel, no GFP-positive cells were microscopically detectable (see FIG. 9, bottom bar).

[1] = system: interaction of G-ME2bHLH and V-ND in PC12 20.4 cells; assay: Cre recombinase-based two-hybrid system in PC12 cell line 20.4 with transient addition of TSA, GFP fluorescence; design: species or system rat; settings: 3 μM TSA for 12 h; two days after transfection of G-ME2bHLH and V-ND; without TSA no GFP-positive cells
Description: FIG. 8 depicts GFP-fluorescence and phase contrast images of the stable PC12 cell line #20.4 two days after transfection with GV, G-ME2bHLH, V-ND and G-ME2bHLH with V-ND, with addition of TSA. […] After cotransfection of the two-hybrid interaction partners V-ND and G-ME2bHLH, GFP fluorescence is likewise detectable under the TSA culturing conditions (bottom left). Under control conditions, transfection of V-ND or G-ME2bHLH, no GFP fluorescence is detectable (center left).
As described in example 4, the PC12 cell line 20.4 expresses all components of the Cre-based reporter system in a completely functional manner. In order to test whether the cell line 20.4 can be utilized for application in the two-hybrid system (see FIG. 2), the known interaction partners described in example 3 were analyzed. Two days after cotransfection of the interaction partners G-ME2bHLH and V-ND, no GFP-positive cells were detectable (see FIG. 7, bottom left). After single transfections of G-ME2bHLH and V-ND, GFP-positive cells were likewise not detectable (see FIG. 7, central figures, left). […] Only after cotransfection of the interaction partners GBR2cc and V-GBR1cc, a multiplicity of GFP-positive cells were detected, after single transfection and cotransfection of the cc deletion mutants, GBR2ccDel and V-GBR1ccDel, no GFP-positive cells were microscopically detectable (see FIG. 9, bottom bar).

**Q.** With `CC(/C=C/C(=O)NO)=C\[C@@H](C)C(=O)c1ccc(N(C)C)cc1` [TSA, trichostatin A] as the molecule, how does the “number of surviving cells” value (PC12 20.4 cells) read?
**A.** lower number of surviving cells

**Q.** What about the “GFP-positive cells detected after transient addition of TSA” value [1] of the same molecule?
**A.** a multiplicity of GFP-positive cells were now detected
